Columns and labels:
PAO1-L = experiment: AQ (HHQ, PQS) quantification by LC-MS/MS in planktonic cultures, PAO1-L; type: cell-based, Pseudomonas aeruginosa; settings: 3 x IC50
Protocol: Since PqsR controls expression of the pqsABCDE operon encoding the enzymes required for different stages of AQ biosynthesis, quantification of HHQ, and PQS provides a direct measurement for inhibition of the biosynthetic pathway. Compound 40 was evaluated for its effect on AQ biosynthesis at a concentration three times the corresponding IC50 values for PAO1-L and PA14.
Figure 5 Effect of compound 40 on AQ production: Quantification of AQ concentrations after treatment with the PqsR inhibitor 40 at 3x IC50 value for PAO1-L and PA14 each strain. The graph represents the average of three independent experiments carried out in triplicate (n = 9) for both strains.
For each test sample, 100µl of sterile filtered supernatant (the same preparation as for pyocyanin) was spiked with 10µl of an internal standard solution (10µM d4-PQS in MeOH), and diluted with water to a total volume of 500µl. […]
screening of the LC eluent for specific AQ analytes. Where chromatographic peaks for HHQ and PQS were detected, a peak area was determined and analyte peak area/internal standard peak area calculated.
AQ quantification in biofilm cultures: […]
For this experiment, the P. aeruginosa PAO1-L strain and M9 minimal medi um were used. […] The supernatant was col lected and the AQ extraction and quantification were performed following the LC MS/MS protocol described above . […]

PA14 = experiment: Pyocyanin quantification, PA14; type: cell-based, Pseudomonas aeruginosa; settings: PA14, compound at 3 x IC50, 16 h, compared with the control
Description: Pyocyanin is an important virulence factor for P. aeruginosa infections and in particular respiratory and urinary tract infections. Pyocyanin is a redox-active phenazine the production of which is regulated via PqsR and PqsE (Hall et al., [2016]; Rampioni et al., [2016]; Higgins et al., [2018]). Therefore, pyocyanin production serves as an indirect readout of the activity of the pqs QS system. […] Compound 40 reduced pyocyanin production by over 80% in both strains in agreement with bioreporter assay results.
Figure 4 Pyocyanin production by Pseudomonas aeruginosa after treatment with pqs inhibitors 8, 14, 23, 34, 25, 26, and 40. Quantification of pyocyanin production after inhibitor treatment at 3 × IC50 for both PAO1-L and PA14. The graph represents the average of three independent experiments carried out in triplicate (n = 9).
PAO1-L Wild type PAO1, Lausanne subline. B.
PAO1-L mCTX::PpqsA- PAO1-L with chromosomal mini-CTX::PpqsA-lux (Soukarieh lux insertion; TcR et al., 2018)
PA14 Wild type UCBPP-PA14 (Rahme et
PA14 mCTX::PpqsA-lux PA14 with chromosomal mini-CTX::PpqsA-lux (Soukarieh insertion; TcR et al., 2018) […]
Pyocyanin quantification: […]
Pyocyanin pigment was extracted into chloroform by mixing 7.5 mL of supernatant with 4.5 mL of chloroform. Pyocyanin w as further extracted into 1.5 mL of 0.2 M HCL which gave a pink/red solution and the absorbance was measured at 520 nm.

Cn1c2ccccc2c2nnc(SCC(=O)Nc3ccc(Oc4ccccn4)cc3)nc21 [Compound 40, 2-((5-Methyl-5H-[1,2,4]triazino[5,6-b]indol-3-yl)thio)-N-(4-(pyridin-2-yloxy)phenyl)acetamide]
production of HHQ and PQS (PAO1-L): substantially reduce
inhibition of pyocyanin production (PA14): over 80%
